Measurements published in ChEMBL document CHEMBL4732253, “Free energy perturbation in the design of EED ligands as inhibitors of polycomb repressive complex 2 (PRC2) methyltransferase” (Bioorg Med Chem Lett, 2021).
≈ marks a conversion by molar mass, not a printed value.

Tests used:
[1] = Intrinsic clearance in rat hepatocytes assessed per million cells; format: ADME, cell-based, Hepatocyte; details: read-out: CLH
[2] = Intrinsic clearance in human liver microsomes; format: ADME, Microsome; details: read-out: CLH
[3] = Inhibition of PRC2 in human G-401 cells assessed as reduction in methylation of H3K27 trimethylation by HTRF assay; format: cell-based
[4] = Solubility of compound in PBS at pH 7.4 measured for 24 hrs; format: physicochemical
[5] = Lipophilicity, log D of the compound in Octanol/phosphate buffer at pH 7.4 by shake-flask method; format: physicochemical
Polycomb protein EED = Polycomb protein EED (Homo sapiens, UniProt O75530); assay: Binding affinity to EED (unknown origin) assessed as dissociation constant by SPR analysis
Chain of Polycomb protein EED (O75530 whole entry): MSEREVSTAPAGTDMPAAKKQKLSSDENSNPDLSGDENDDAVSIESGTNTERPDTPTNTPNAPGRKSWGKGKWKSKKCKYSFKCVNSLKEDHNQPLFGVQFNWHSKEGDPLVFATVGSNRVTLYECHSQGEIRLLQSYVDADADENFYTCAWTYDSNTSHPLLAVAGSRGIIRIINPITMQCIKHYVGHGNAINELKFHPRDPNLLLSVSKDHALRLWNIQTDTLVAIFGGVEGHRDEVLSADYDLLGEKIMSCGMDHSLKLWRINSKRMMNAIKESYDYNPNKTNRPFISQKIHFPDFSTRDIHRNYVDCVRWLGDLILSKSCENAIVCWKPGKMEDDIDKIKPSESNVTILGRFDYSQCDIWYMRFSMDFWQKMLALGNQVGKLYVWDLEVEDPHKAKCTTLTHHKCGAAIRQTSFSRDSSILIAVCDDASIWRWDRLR

Row | SMILES | hepatocyte CLint [1] | microsomal CLint [2] | IC50 [3] | solubility at 24 h [4] | logD [5] | Kd (Polycomb protein EED)
1 | Cc1ncccc1-c1cnc(NCc2c(F)ccc3c2CCO3)n2cnnc12 | 6 µL/min/1e6 cells | 15 µL/min/mg | 0.005 µM | – | 2.5 | 0.4 µM
2 | Cc1ncccc1-c1cnc(NCc2c(F)cc(Cl)c3c2CCO3)n2cnnc12 | 9 µL/min/1e6 cells | 20 µL/min/mg | 0.016 µM | 0.2 µM (≈ 0.0822 µg/mL) | 3.2 | 2.4 µM
3 | Cc1ncccc1-c1cnc(NCc2c(F)cc(N)c3c2CCO3)n2cnnc12 | 7 µL/min/1e6 cells | 13 µL/min/mg | 0.05 µM | – | 1.8 | 0.5 µM
4 | Cc1ncccc1-c1cnc(NCc2c(F)cc(F)c3c2CCO3)n2cnnc12 | 9 µL/min/1e6 cells | 9 µL/min/mg | 0.011 µM | 4 µM (≈ 1.58 µg/mL) | 2.6 | 1.2 µM

The next lines start with the values.

Row | hepatocyte CLint [1] | microsomal CLint [2] | IC50 [3] | solubility at 24 h [4] | logD [5] | Kd (Polycomb protein EED) | SMILES
5 | 50 µL/min/1e6 cells | 9 µL/min/mg | 0.015 µM | 5 µM (≈ 1.96 µg/mL) | 1.8 | – | Cc1ncccc1-c1cnc(NCc2c(F)cc(O)c3c2CCO3)n2cnnc12
6 | 10 µL/min/1e6 cells | 28 µL/min/mg | 0.102 µM | 3 µM (≈ 1.2 µg/mL) | 2.2 | 15 µM | Cc1ncccc1-c1cnc(NCc2c(F)cc(C#N)c3c2CCO3)n2cnnc12
7 | 4 µL/min/1e6 cells | 20 µL/min/mg | 15.5 µM | 21 µM (≈ 8.53 µg/mL) | 2.3 | 305 µM | COc1cc(F)c(CNc2ncc(-c3cccnc3C)c3nncn23)c2c1OCC2
